# US8420657B2 (Novartis AG, priority 2008, dated 2013)
# pIC50: −log10 of the molar value.
# Experiments:
# GST-JAK2(808-1132) = target: T1, GST-JAK2(808-1132) (Homo sapiens, UniProt O60674); experiment: JAK2 kinase assay (Caliper mobility shift, LabChip 3000); format: biochemical
# T1 construct: GST-JAK2(808-1132); purchased Invitrogen (Carlsbad, USA) #4288
# How it was run: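 Eight-point compound series (final 10–0.003 μM) tested on purchased GST-JAK2 kinase domain (808-1132). Peptide FITC-JAK3tide plus ATP reacted 60 min, 30 °C, then quenched with EDTA; turnover from charge-based separation of substrate and product.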
# [1] = tested on: JAK2-dependent nuclear translocation of STAT5-GFP in U-2 OS osteosarcoma cells; experiment: STAT5 nuclear translocation assay (Cellomics), rhEpo stimulated U-2 OS STAT5-GFP cells; format: cell-based; conditions: Homo sapiens, U2OS; STAT5 translocation pathway
# Text: The medium-throughput (96-well format) cellular automated fluorescence microscopy Cellomics assay can be routinely used to assess the functional activation of Janus Kinases (JAKs), based on the nuclear translocation of their substrate, Signal Transducer and Activator of Transcription (STAT). Nuclear translocation can be monitored either in HT1080 fibrosarcoma cells stably transfected with STAT1 fused to Green Fluorescence Protein (GFP) or in U-2 OS osteosarcoma cells stably transfected with STAT5 fused to Green Fluorescence Protein (GFP). Stimulation of HT1080 cells with interferon-γ (IFN-γ) results in JAK1/JAK2-dependent nuclear translocation of STAT1-GFP, whereas stimulation of U-2 OS cells with recombinant human erythropoietin (rhEpo) results in JAK2-dependent nuclear translocation of STAT5-GFP, both of which can be quantified using the Cellomics Cyto/NucTrans software package. This assay may be used to provide an assessment of the nuclear-cytoplasmic differential (NCD) of STAT-GFP using Hoechst dye to define the boundaries of the nucleus.
# U-2 OS osteosarcoma cells may be obtained from ATCC and can be cultured in standard RPMI medium supplemented with 10% FCS and 2 mM L-glutamine. Cells can be stably transfected with STAT5a-GFP using Lipofectamine following the manufacturers' protocol. 24 hours after transfection the medium can be replaced and selected in 400 μg/ml Geneticin. Subsequently, cells can be stably transfected with EpoR using Lipofectamine following the manufacturers' protocol. 24 hours after transfection the medium can be replaced and cells selected in 100 μg/ml Hygromycin B.
# Compounds can be dissolved in DMSO to a final stock concentration of 10 mM and stored as aliquots at 4° C. Compounds may be pre-diluted in 100% DMSO at 10 mM, 3 mM 1 mM, 0.3 mM, 0.1 mM, 0.03 mM, 0.01 mM and 0.003 mM. Subsequently, compounds may be diluted in medium and added in 50 μl to the cells. The final compound concentrations tested may be 10 μM, 3 μM 1 μM, 0.3 μM, 0.1 μM, 0.03 μM, 0.01 μM and 0.003 μM and the final DMSO concentration can be 0.1%.
# U-2 OS may be seeded at a cell density of 12,000 cells per well in clear-bottom black 96-well Packard View-Plates™. The following day, medium can be removed and replaced with medium containing either the vehicle (DMSO) or increasing concentrations of test compounds for 30 minutes at 37° C. Cells can then be stimulated for 1 hour by adding 10 μl per well of 50 U/ml rhEpo to obtain 5 U/ml of rhEpo as the final concentration. Following treatments, cells can fixed and processed as described above.
# The plates can be read on a Cellomics® ArrayscanII automated fluorescence microscope plate reader equipped with a Mercury-Xenon white light illumination source and a Zeiss Axiovert inverted microscope, using the XF100 dichroic/emission filter cube and matching excitation filters, 10× magnification, and a 0.3 numerical aperture objective. Image acquisition and analysis can be performed using a customized protocol based on the ‘NuclearTranslocation’ Bioapplication. For each well, multiple images (fields) can be acquired until a minimum of 1000 cells are counted using two 2 channels: Channel 1 (Hoechst)=focus+nuclear mask, Channel 2 (GFP)=signal quantification in mask areas as outlined below. Nuclei may be first identified based on the Hoechst staining and a mask generated for each nucleus that then serves as a template to generate a circle (eroded inwards by 1 pixel) and a 3 pixel-wide collar-like ring (off-set outwards by 1 pixel), in which the nuclear and cytoplasmic intensity of GFP, respectively, are quantified in the corresponding channel. High content analysis yields numerous measurements per cell and the GFP intensity differential between the nuclear and the cytoplasmic masks may be chosen as a measure of sub-cellular STAT-GFP relocation. The resulting values may be averaged for all cells in the well to return a single measurement plus standard deviation. […]
# T1 sequence (O60674 808-1132): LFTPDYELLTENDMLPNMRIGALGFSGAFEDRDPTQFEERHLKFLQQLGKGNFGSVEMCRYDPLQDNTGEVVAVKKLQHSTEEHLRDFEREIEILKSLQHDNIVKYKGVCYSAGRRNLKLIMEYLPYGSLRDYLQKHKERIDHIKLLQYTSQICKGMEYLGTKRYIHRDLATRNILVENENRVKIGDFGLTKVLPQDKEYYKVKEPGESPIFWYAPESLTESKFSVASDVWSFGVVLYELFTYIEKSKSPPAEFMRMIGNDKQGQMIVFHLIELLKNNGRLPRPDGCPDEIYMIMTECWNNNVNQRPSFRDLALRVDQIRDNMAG
Compound,pIC50 (GST-JAK2(808-1132)),pIC50 [1]
"Cc1ccc(Nc2ncc3ccn(-c4cc(F)c(CN5CCOCC5)c(F)c4)c3n2)cc1Cn1cc(CN(C)C)nn1 [Example 418, [7-(3,5-Difluoro-4-morpholin-4-ylmethyl-phenyl)-7H-pyrrolo[2,3-d]pyrimidin-2-yl]-[3-(4-dimethylaminomethyl-[1,2,3]triazol-1-ylmethyl)-4-methyl-phenyl]-amine]",8.34,7.80
"Fc1cc(-n2ccc3cnc(Nc4ccc([C@H]5COCCN5CCOCc5ccccc5)cc4)nc32)cc(F)c1CN1CCOCC1 [Example 520, {4-[(S)-4-(2-Benzyloxy-ethyl)-morpholin-3-yl]-phenyl}-[7-(3,5-difluoro-4-morpholin-4-ylmethyl-phenyl)-7H-pyrrolo[2,3-d]pyrimidin-2-yl]-amine]",7.24,6.27
"COC1CN(Cc2c(F)cc(-n3ccc4cnc(Nc5ccc(C)c(CN6CCNCC6)c5)nc43)cc2F)C1 [Example 482, {7-[3,5-Difluoro-4-(3-methoxy-azetidin-1-ylmethyl)-phenyl]-7H-pyrrolo[2,3-d]pyrimidin-2-yl}-(4-methyl-3-piperazin-1-ylmethyl-phenyl)-amine]",≥ 8.52,6.82
"Cc1ccc(Nc2ncc3ccn(-c4ccc(C(=O)N5CCOCC5)c(F)c4)c3n2)cc1CN1C[C@@H](C)N[C@@H](C)C1 [Example 367, (4-{2-[3-(cis-3,5-Dimethyl-piperazin-1-ylmethyl)-4-methyl-phenylamino]-pyrrolo[2,3-d]pyrimidin-7-yl}-2-fluoro-phenyl)-morpholin-4-yl-methanone]",8.08,6.84
"Cc1ccc(Nc2ncc3ccn(-c4cc(F)c(CN5CCOCC5=O)c(F)c4)c3n2)cc1CN1CCNCC1 [Example 485, 4-{2,6-Difluoro-4-[2-(4-methyl-3-piperazin-1-ylmethyl-phenylamino)-pyrrolo[2,3-d]pyrimidin-7-yl}-benzyl]-morpholin-3-one]",≥ 8.52,6.96
"O=C1CNCCN1Cc1ccc(Nc2ncc3ccn(-c4cc(F)c(CN5CCOCC5)c(F)c4)c3n2)cc1 [Example 498, 1-{4-[7-(3,5-Difluoro-4-morpholin-4-ylmethyl-phenyl)-7H-pyrrolo[2,3-d]pyrimidin-2-ylamino]-benzyl}-piperazin-2-one]",≥ 8.52,7.08
"OC1CN(Cc2cc(Nc3ncc4ccn(-c5cc(F)c(CN6CCOCC6)c(F)c5)c4n3)ccc2Cl)C1 [Example 400, 1-{2-Chloro-5-[7-(3,5-difluoro-4-morpholin-4-ylmethyl-phenyl)-7H-pyrrolo[2,3-d]pyrimidin-2-ylamino]-benzyl}-azetidin-3-ol]",8.15,8.77
"Cc1cc(Nc2ncc3ccn(-c4cc(F)c(CN5CCS(=O)(=O)CC5)c(F)c4)c3n2)cc(C)c1OCCN1CCOCC1 [Example 432, [3,5-Dimethyl-4-(2-morpholin-4-yl-ethoxy)-phenyl]-{7-[4-(1,1-dioxido-thiomorpholin-4-ylmethyl)-3,5-difluoro-phenyl]-7H-pyrrolo[2,3-d]pyrimidin-2-yl}-amine]",≥ 8.52,9.40
"Fc1cc(-n2ccc3cnc(Nc4ccnc(OC5CCOCC5)c4)nc32)cc(F)c1CN1CCOCC1 [Example 350, [7-(3,5-Difluoro-4-morpholin-4-ylmethyl-phenyl)-7H-pyrrolo[2,3-d]pyrimidin-2-yl]-[2-(tetrahydro-pyran-4-yloxy)-pyridin-4-yl]-amine]",≥ 8.52,7.66
"Fc1cc(-n2ccc3cnc(Nc4ccc(OCCN5CCOCC5)nc4)nc32)cc(F)c1CN1CCOCC1 [Example 513, [7-(3,5-Difluoro-4-morpholin-4-ylmethyl-phenyl)-7H-pyrrolo[2,3-d]pyrimidin-2-yl]-[6-(2-morpholin-4-yl-ethoxy)-pyridin-3-yl]-amine]",8.34,6.94
"Fc1cc(-n2ccc3cnc(Nc4ccc(CN5CCNCC5)nc4)nc32)cc(F)c1CN1CCOCC1 [Example 486, [7-(3,5-Difluoro-4-morpholin-4-yl methyl-phenyl)-7H-pyrrolo[2,3-d]pyrimidin-2-yl]-(6-piperazin-1-ylmethyl-pyridin-3-yl)-amine]",≥ 8.52,6.31
"Cc1ccc(Nc2ncc3ccn(-c4cc(F)c(CN5CCOCC5)c(F)c4)c3n2)cc1CN1CCNC(C)(C)C1 [Example 385, [7-(3,5-Difluoro-4-morpholin-4-ylmethyl-phenyl)-7H-pyrrolo[2,3-d]pyrimidin-2-yl]-[3-(3,3-dimethyl-piperazin-1-ylmethyl)-4-methyl-phenyl]-amine]",≥ 8.52,7.18
"Cc1cc(Nc2ncc3ccn(-c4cc(F)c(CN5CCOCC5)c(F)c4)c3n2)cnc1N1CCNCC1 [Example 487, [7-(3,5-Difluoro-4-morpholin-4-ylmethyl-phenyl)-7H-pyrrolo[2,3-d]pyrimidin-2-yl]-(5-methyl-6-piperazin-1-yl-pyridin-3-yl)-amine]",≥ 8.52,8.24
"Cc1ccc(Nc2ncc3ccn(-c4cc(F)c(CN5CCS(=O)(=O)CC5)c(F)c4)c3n2)cc1CN1CCC(O)C1 (racemic) [Example 425, 1-(5-{7-[4-(1,1-Dioxido-thiomorpholin-4-ylmethyl)-3,5-difluoro-phenyl]-7H-pyrrolo[2,3-d]pyrimidin-2-ylamino}-2-methyl-benzyl)-pyrrolidin-3-ol]",≥ 8.52,8.44
"C[C@@H]1CN(Cc2ccc(Nc3ncc4ccn(-c5ccc(S(=O)(=O)NC(C)(C)C)cc5)c4n3)cc2)C[C@H](C)N1 [Example 464, N-tert-Butyl-4-{2-[4-(cis-3,5-dimethyl-piperazin-1-ylmethyl)-phenylamino]-pyrrolo[2,3-d]pyrimidin-7-yl}-benzenesulfonamide]",≥ 8.52,7.23
"Cc1cc(Nc2ncc3ccn(-c4cc(F)c(CN5CCOCC5)c(F)c4)c3n2)cc(C)c1OCCN1CCOCC1 [Example 433, [7-(3,5-Difluoro-4-morpholin-4-ylmethyl-phenyl)-7H-pyrrolo[2,3-d]pyrimidin-2-yl]-[3,5-dimethyl-4-(2-morpholin-4-yl-ethoxy)-phenyl]-amine]",≥ 8.52,8.20
"Cc1ccc(Nc2ncc3ccn(-c4cc(F)c(CN5CCOCC5)c(F)c4)c3n2)cc1CN1CCC(O)C1 (racemic) [Example 411, 1-{5-[7-(3,5-Difluoro-4-morpholin-4-ylmethyl-phenyl)-7H-pyrrolo[2,3-d]pyrimidin-2-ylamino]-2-methyl-benzyl}-pyrrolidin-3-ol]",≥ 8.52,8.59
"Cc1cc(Nc2ncc3ccn(-c4cc(F)c(CN5CCOCC5=O)c(F)c4)c3n2)cnc1N1C[C@@H](C)N[C@@H](C)C1 [Example 483, 4-(4-{2-[6-(cis-3,5-Dimethyl-piperazin-1-yl)-5-methyl-pyridin-3-ylamino]-pyrrolo[2,3-d]pyrimidin-7-yl}-2,6-difluoro-benzyl)-morpholin-3-one]",≥ 8.52,7.91
"C[C@@H]1CN(c2ccc(Nc3ncc4ccn(-c5cc(F)c(CN6CCOC7(COC7)C6)c(F)c5)c4n3)cn2)C[C@H](C)N1 [Example 360, [6-(cis-3,5-Dimethyl-piperazin-1-yl)-pyridin-3-yl]-{7-[4-(2,5-dioxa-8-aza-spiro[3,5]non-8-ylmethyl)-3,5-difluoro-phenyl]-7H-pyrrolo[2,3-d]pyrimidin-2-yl}-amine]",8.48,8.14
